According to article PMC5835321 (Cancer research, 2017):

Molecular target: T1, PPARG (PPAR-gamma) (Homo sapiens, UniProt P37231)
T1 sequence (P37231 231-505 limits assumed): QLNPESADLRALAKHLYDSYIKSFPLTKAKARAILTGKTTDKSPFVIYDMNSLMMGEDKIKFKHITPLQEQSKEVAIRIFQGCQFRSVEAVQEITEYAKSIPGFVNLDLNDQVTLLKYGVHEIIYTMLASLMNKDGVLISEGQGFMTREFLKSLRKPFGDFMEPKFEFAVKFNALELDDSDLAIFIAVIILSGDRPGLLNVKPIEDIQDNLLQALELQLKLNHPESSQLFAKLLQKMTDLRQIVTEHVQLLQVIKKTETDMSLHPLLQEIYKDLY

Question: Which “TR-FRET coactivator recruitment and corepressor release; full agonist” value does the source give for CN(CCOc1ccc(C[C@H](Nc2ccccc2C(=O)c2ccccc2)C(=O)O)cc1)c1ccccn1 [GW1929] here?
Answer: The value was “Full agonists, such as rosiglitazone, tesaglitazar, GW1929, and pioglitazone, enhanced interaction between PPARG and MED1 coactivator peptide”.
